Results as given in patent EP4603105A1, “PHARMACEUTICAL COMPOSITION CONTAINING CYCLIC COMPOUND HAVING SELECTIVE KRAS INHIBITORY EFFECT AGAINST HRAS AND NRAS” (CHUGAI SEIYAKU KABUSHIKI KAISHA, priority 2022, dated 2024).
Where two headings read alike, the source gives them in different places.

Experiments:
[1] = molecular target: GDP-bound NRAS wild-type protein (Homo sapiens, UniProt P01111); test: Binding to NRAS by surface plasmon resonance (SPR), KD and KD ratio to KRAS
How it was run: (§1)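 Running buffer contained 10 µM GDP and 10 mM MgCl2 to keep RAS in the GDP state, with 4% DMSO at pH 7.4. Compounds were flowed at 100 µL/min in 75 s steps of rising concentration over captured biotin-Avi RAS at 30°C. Sensorgrams were fitted 1:1 for KD.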

HRAS wild-type protein = HRAS wild-type protein (Homo sapiens, UniProt P01112); test: Binding to HRAS by surface plasmon resonance (SPR), KD and KD ratio to KRAS
How it was run: as §1

[2] = molecular target: GDP-bound KRAS wild-type protein (Homo sapiens, UniProt P01116); test: Binding to KRAS by surface plasmon resonance (SPR), dissociation constant KD
How it was run: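 Biotinylated GDP-bound RAS was captured at about 100–300 RU. Running buffer: HBS pH 7.4, 10 mM MgCl2, 10 µM GDP, 1 mM DTT, 0.01% Tween 20, 4% DMSO.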

[3] = system: human lung cancer strain NCI-H441; test: NCI-H441 cell proliferation inhibitory activity (CellTiter-Glo, 4 days); assay type: cell-based; conditions: read-out: NCl-H441 IC50
How it was run: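 Step one: dispense the test compound in serial DMSO dilutions. Step three: add the reagent and measure […].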

[4] = ratio of KD for GDP-bound NRAS wild-type protein to KD for KRAS
[5] = ratio of KD for HRAS wild-type protein to KD for KRAS

GDP-bound NRAS wild-type protein, sequence (P01111 whole entry): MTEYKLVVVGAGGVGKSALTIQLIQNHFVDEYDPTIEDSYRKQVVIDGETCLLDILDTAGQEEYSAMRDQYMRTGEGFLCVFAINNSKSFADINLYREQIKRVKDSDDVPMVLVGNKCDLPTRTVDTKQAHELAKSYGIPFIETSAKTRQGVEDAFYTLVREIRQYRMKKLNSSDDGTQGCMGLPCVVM
HRAS wild-type protein, sequence (P01112 whole entry): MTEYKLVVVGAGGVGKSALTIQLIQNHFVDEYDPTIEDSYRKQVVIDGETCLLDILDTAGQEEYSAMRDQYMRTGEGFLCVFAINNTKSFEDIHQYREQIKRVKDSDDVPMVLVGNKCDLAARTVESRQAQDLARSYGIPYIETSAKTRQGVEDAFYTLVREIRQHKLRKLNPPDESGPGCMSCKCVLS
GDP-bound KRAS wild-type protein, sequence (P01116 1-188 isoform P01116-2): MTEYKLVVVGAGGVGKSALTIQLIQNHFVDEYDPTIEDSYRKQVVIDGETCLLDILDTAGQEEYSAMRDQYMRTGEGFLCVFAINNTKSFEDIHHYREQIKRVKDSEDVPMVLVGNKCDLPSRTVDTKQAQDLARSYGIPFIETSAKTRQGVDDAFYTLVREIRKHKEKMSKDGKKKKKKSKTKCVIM

SMILES	NRAS /KRAS [1, 4]	HRAS /KRAS (HRAS wild-type protein; [5])	Kd ([2]; 1:1 binding model)	IC50 ([3]; NCI-H441 cells, 4 days)	Kd ([2]; Single Cycle Kinetics)	NRAS /KRAS ([1]; ratio of KD with respect to GDP-bound NRAS wild-type protein to KD with respect to KRAS)	HRAS /KRAS (HRAS wild-type protein; ratio of KD with respect to HRAS wild-type protein to KD with respect to KRAS)	Kd ([2]; Single Cycle Kinetics, 1:1 binding model)	IC50 ([3]; 50% proliferation inhibitory concentration, four days)
CCOC[C@H]1C(=O)N[C@@H]([C@@H](C)CC)C(=O)N(C)CC(=O)N(C)[C@H]2C/C=C\CCN(C2=O)[C@@H](Cc2ccc(C)cc2)C(=O)N(C)CC(=O)N[C@@H](CCc2ccc(C(F)(F)F)c(Cl)c2)C(=O)N2C[C@H](OCC)C[C@H]2C(=O)NC2(CC(C)(C)C2)C(=O)N(C)[C@@H](C2CCCC2)C(=O)N(C)[C@H](C(=O)N(C)C)CC(=O)N1C [PP2395]	A (a compound having 10 or more and less than 20 is denoted as A)	B (a compound having 3 or more and less than 10 is denoted as B)	0.072 nM	6.3 nM					
CCCO[C@@H]1C[C@H]2C(=O)NC3(CC(C)(C)C3)C(=O)N(C)[C@@H](C3CCCC3)C(=O)N(C)[C@H](C(=O)N(C)CC)CC(=O)N[C@@H](COCC)C(=O)N[C@@H]([C@@H](C)CC)C(=O)N3CCC[C@H]3C(=O)N(C)[C@H]3C/C=C\CCN(C3=O)[C@@H](Cc3ccc(C)cc3)C(=O)N(C)CC(=O)N[C@@H](CCc3ccc(C(F)(F)F)c(OC)c3)C(=O)N2C1 [PP3439]	A (a compound having 10 or more and less than 20 is denoted as A)	A (a compound having 10 or more and less than 20 is denoted as A)		148 nM	1.7 nM				
CCOC[C@H]1C(=O)N[C@@H]([C@@H](C)CC)C(=O)N(C2CC2)CC(=O)N(C)[C@H]2C/C=C\CCN(C2=O)[C@@H](Cc2ccc(C)cc2)C(=O)N(C)CC(=O)N[C@@H](CCc2cc(F)c(C(F)(F)F)c(F)c2)C(=O)N2C[C@H](OCC)C[C@H]2C(=O)NC2(CC(C)(C)C2)C(=O)N(C)[C@@H](CC(C)(C)C)C(=O)N(C)[C@H](C(=O)N(C)C)CC(=O)N1C [PP2720]	A (a compound having 10 or more and less than 20 is denoted as A)	A (a compound having 10 or more and less than 20 is denoted as A)	0.35 nM	7.7 nM					
CCC[C@H]1C(=O)N[C@@H]([C@@H](C)CC)C(=O)N(C2CC2)CC(=O)N(C)[C@H]2C/C=C\CCN(C2=O)[C@@H](Cc2ccc(C)cc2)C(=O)N(C)CC(=O)N[C@@H](CCc2ccc(C(F)(F)F)c(OC)c2)C(=O)N2C[C@@H](C)C[C@H]2C(=O)N(C)C2(CCC2)C(=O)N(C)[C@@H](C2CCCC2)C(=O)N(C)[C@H](C(=O)N(C)C)CC(=O)N1C [PP2366]	A (a compound having 10 or more and less than 20 is denoted as A)	A (a compound having 10 or more and less than 20 is denoted as A)	0.048 nM	4.5 nM					
C#CC[C@H]1C(=O)N[C@@H]([C@@H](C)CC)C(=O)N(C)CC(=O)N(C)[C@H]2C/C=C\CCN(C2=O)[C@@H](Cc2ccc(C)cc2)C(=O)N(C)CC(=O)N[C@@H](CCc2ccc(C(F)(F)F)c(Cl)c2)C(=O)N2C[C@H](OCC)C[C@H]2C(=O)N(C)C2(CCC2)C(=O)N(C)[C@@H](C2CCCC2)C(=O)N(C)[C@H](C(=O)N(C)C)CC(=O)N1C [PP3240]	A (a compound having 10 or more and less than 20 is denoted as A)	A (a compound having 10 or more and less than 20 is denoted as A)		2.3 nM	0.024 nM				
CCC[C@H]1C(=O)N[C@@H]([C@@H](C)CC)C(=O)N(C)CC(=O)N(C)[C@H]2C/C=C\CCN(C2=O)[C@@H](Cc2ccc(C)cc2)C(=O)N(C)CC(=O)N[C@@H](CCc2ccc(Cl)c(Cl)c2)C(=O)N2C[C@H](OCC)C[C@H]2C(=O)NC2(CC(C)(C)C2)C(=O)N(C)[C@@H](CC2CCC2)C(=O)N(C)[C@H](C(=O)N(C)C)CC(=O)N1C [PP2755]	A (a compound having 10 or more and less than 20 is denoted as A)	A (a compound having 10 or more and less than 20 is denoted as A)	0.56 nM	35.7 nM					
CCCOC[C@H]1C(=O)N[C@@H]([C@H](C)CC)C(=O)N(CCC)CC(=O)N(C)[C@H]2C/C=C\CCN(C2=O)[C@@H](Cc2ccc(C(F)F)cc2)C(=O)N(C)CC(=O)N[C@@H](CCc2cc(F)c(C(F)(F)F)c(F)c2)C(=O)N2C[C@H](OC(C)C)C[C@H]2C(=O)N(C)C2(CCC2)C(=O)N(C)[C@@H](C(CC)CC)C(=O)N(C)[C@H](C(=O)N(C)C)CC(=O)N1C [PP3492]	A (a compound having 10 or more and less than 20 is denoted as A)	A (a compound having 10 or more and less than 20 is denoted as A)		89.4 nM	4.2 nM				
CCCC[C@@H]1NC(=O)C[C@@H](C(=O)N(C)C)N(C)C(=O)[C@H](C2CCCC2)N(C)C(=O)C2(CC(C)(C)C2)NC(=O)[C@@H]2C[C@@H](OCC)CN2C(=O)[C@H](CCc2ccc(C(F)(F)F)c(OC)c2)NC(=O)CN(C)C(=O)[C@H](Cc2ccc(C(F)(F)F)cc2)N2CC/C=C\C[C@@H](C2=O)N(C)C(=O)CN(C)C(=O)[C@H]([C@@H](C)CC)NC1=O [PP3446]	A (a compound having 10 or more and less than 20 is denoted as A)	A (a compound having 10 or more and less than 20 is denoted as A)		21.3 nM	0.2 nM				
CCO[C@@H]1C[C@H]2C(=O)NC3(CCC3)C(=O)N(C)[C@@H](C(CC)CC)C(=O)N(C)[C@H](C(=O)N(C)C)CC(=O)N(C)[C@@H](CC)C(=O)N[C@@H]([C@@H](C)CC)C(=O)N(C)CC(=O)N(C)[C@H]3C/C=C\CCN(C3=O)[C@@H](Cc3ccc(C(F)(F)F)cc3)C(=O)N(C)CC(=O)N[C@@H](CCc3ccc(Cl)c(Cl)c3)C(=O)N2C1 [PP1215]						AA (a compound having 20 or more is denoted as AA)	A (a compound having 10 or more and less than 20 is denoted as A)	0.42 nM	33.4 nM
CCC[C@H]1C(=O)N[C@@H]([C@@H](C)CC)C(=O)N(C)CC(=O)N(C)[C@H]2C/C=C\CCN(C2=O)[C@@H](Cc2ccc(C)cc2)C(=O)N(C)CC(=O)N[C@@H](CCc2ccc(C(F)(F)F)c(OC)c2)C(=O)N2CC3(CC3)C[C@H]2C(=O)N(C)C2(CCC2)C(=O)N(C)[C@@H](C2CCCC2)C(=O)N(C)[C@H](C(=O)N(C)C)CC(=O)N1C [PP3290]	A (a compound having 10 or more and less than 20 is denoted as A)	B (a compound having 3 or more and less than 10 is denoted as B)		1.9 nM	0.021 nM				
CCC[C@H]1C(=O)N[C@@H](C2CCCC2)C(=O)N(C)CC(=O)N(C)[C@H]2C/C=C\CCN(C2=O)[C@@H](Cc2ccc(C)cc2)C(=O)N(C)CC(=O)N[C@@H](CCc2cc(F)c(C(F)(F)F)c(F)c2)C(=O)N2CC3(CC3)C[C@H]2C(=O)N(C)C2(CCC2)C(=O)N(C)[C@@H](C(CC)CC)C(=O)N(C)[C@H](C(=O)N(C)C)CC(=O)N1C [PP3308]	A (a compound having 10 or more and less than 20 is denoted as A)	B (a compound having 3 or more and less than 10 is denoted as B)		17.2 nM	0.18 nM				
CCO[C@@H]1C[C@H]2C(=O)NC3(CCCC3)C(=O)N(C)[C@@H](C3CCCC3)C(=O)N(C)[C@H](C(=O)N(C)C)CC(=O)N(C)[C@@H]([C@@H](C)OC)C(=O)N[C@@H]([C@@H](C)CC)C(=O)N(C3CC3)CC(=O)N(C)[C@H]3C/C=C\CCN(C3=O)[C@@H](Cc3ccc(C)cc3)C(=O)N(C)CC(=O)N[C@@H](CCc3cc(F)c(C(F)(F)F)c(F)c3)C(=O)N2C1 [PP3482]	A (a compound having 10 or more and less than 20 is denoted as A)	A (a compound having 10 or more and less than 20 is denoted as A)		38.6 nM	0.6 nM				
CCCO[C@@H]1C[C@H]2C(=O)NC3(CC(C)(C)C3)C(=O)N(C)[C@@H](C3CCCC3)C(=O)N(C)[C@H](C(=O)N(C)CC)CC(=O)N[C@@H](COCC)C(=O)N[C@@H]([C@@H](C)CC)C(=O)N3CCC[C@H]3C(=O)N(C)[C@H]3C/C=C\CCN(C3=O)[C@@H](Cc3ccc(C)cc3)C(=O)N(C)CC(=O)N[C@@H](CCc3ccc(C(F)(F)F)c(Cl)c3)C(=O)N2C1 [PP3431]	A (a compound having 10 or more and less than 20 is denoted as A)	A (a compound having 10 or more and less than 20 is denoted as A)		79.5 nM	3 nM				
CCCOC[C@H]1C(=O)N[C@@H](C2CCCC2)C(=O)N(CCC)CC(=O)N(C)[C@H]2C/C=C\CCN(C2=O)[C@@H](Cc2ccc(C)cc2)C(=O)N(C)CC(=O)N[C@@H](CCc2ccc(Cl)c(C(F)(F)F)c2)C(=O)N2C[C@H](OC(C)C)C[C@H]2C(=O)N(C)C2(CCC2)C(=O)N(C)[C@@H](C(CC)CC)C(=O)N(C)[C@H](C(=O)N(C)C)CC(=O)N1C [PP3501]	AA (a compound having 20 or more is denoted as AA)	A (a compound having 10 or more and less than 20 is denoted as A)		102 nM	1.1 nM				
CCC[C@H]1C(=O)N[C@@H](C2CCCC2)C(=O)N(C)CC(=O)N(C)[C@H]2C/C=C\CCN(C2=O)[C@@H](Cc2ccc(C)cc2)C(=O)N(C)CC(=O)N[C@@H](CCc2cc(F)c(C(F)(F)F)c(F)c2)C(=O)N2CC3(CC3)C[C@H]2C(=O)NC2(CCC2)C(=O)N(C)[C@@H](C(CC)CC)C(=O)N(C)[C@H](C(=O)N(C)C)CC(=O)N1C [PP3428]	A (a compound having 10 or more and less than 20 is denoted as A)	A (a compound having 10 or more and less than 20 is denoted as A)		18.7 nM	0.77 nM				
